Data reported in ChEMBL document CHEMBL1123907 (J Med Chem, 1987).

Tests used:
[1] = Binding affinity against imipramine receptor was determined in homogenized rat cortex tissue using [3H]-imipramine as radioligand
[2] = molecular target: Muscarinic acetylcholine receptor; assay: Binding affinity against Muscarinic acetylcholine receptor was determined in homogenized rat cortex tissue using [3H]N-methylscopolamine as radioligand

`CN(C)CCC(=O)N1c2ccccc2C(=O)Nc2cccnc21` gave a Ki [1] greater than 100000 nM and a Ki [2] of 45 nM.
With `CN1CCN(CC(=O)N2c3ccccc3NC(=O)c3ccccc32)CC1` the Ki [1] was greater than 100000 nM and the Ki [2] was 23 nM.
`CN(C)CCC(=O)N1c2ccccc2NC(=O)c2ccccc21` gave a Ki [1] greater than 100000 nM and a Ki [2] of 6 nM.
Work on `CN1CCN(CC(=O)N2c3ccccc3CCc3ccccc32)CC1` yielded a Ki [1] greater than 100000 nM and a Ki [2] of 200 nM.
For `CN(C)CCCN1c2ccccc2C(=O)Nc2cccnc21`, the Ki [1] was 15000 nM and the Ki [2] was 200 nM.
`CN(C)CCCN1c2ccccc2NC(=O)c2ccccc21` gave a Ki [1] of 4000 nM and a Ki [2] of 50 nM.
Work on `CN(C)CCC(=O)N1c2ccccc2CCc2ccccc21` yielded a Ki [1] of 400 nM and a Ki [2] of 240 nM.
`CN(C)CCCN1c2ccccc2CCc2ccccc21` [IMIPRAMINE] gave a Ki [1] of 12 nM and a Ki [2] of 65 nM.
`CN1CCN(CC(=O)N2c3ccccc3C(=O)Nc3cccnc32)CC1` [PIRENZEPINE] gave a Ki [1] greater than 100000 nM.
